Laboratory results reported in US6281354A, “Analogs of duocarmycin and cc-1065” (The Scripps Research Institute, priority 1999, dated 2001).
Like-named read-outs stand apart in the source and are kept apart here.

What was measured:
[1] = In vitro cytotoxic activity; conditions: for cytotoxic potency of the two enantiomers compared: natural versus unnatural enantiomer; for cytotoxic activity of seco precursor compared with cyclopropane agent: versus 17-20, 23, 30 and 31, respectively
[2] = tested on: duplex DNA (w794, w836, c988, c820, c1346); assay type: biochemical, SV40; conditions: for sequence preference at the alkylation site: consensus alkylation sequence; for concentration at which DNA is alkylated / more efficient DNA alkylation than (+)-N--BOC-DSA: natural enantiomers
[3] = Chemical/aqueous solvolysis reactivity followed by UV; assay type: physicochemical; conditions: for solvolysis rate constant κ, pH 3: pH 3, 50% CH3 OH-buffer
Source text: The solvolysis reactivities of N--BOC-CNA (78) and CNA (79) were followed spectrophotometrically by UV at both pH 3 (50% CH3 OH-buffer, buffer=4:1:20 v/v/v 0.1 M citric acid, 0.2 M Na2 HPO4, H2 O) and pH 7 (50% CH3 OH--H2 O). […] Particularly informative are comparisons of the benzo series of agents that differ only in the C-ring size (i.e., 76-79). Solvolysis reactivity smoothly increases through the series CBI<CBQ<CNA with both the N--BOC derivatives and the free NH derivatives.
Aqueous Solvolysis of N--BOC-CNA (78) and CNA (79). Samples of 78 (150 μg) and 79 (150 [g) were dissolved in CH3 OH (1.5 mL) and the resulting solutions were mixed with aqueous buffer (pH 3, 1.5 mL, 4:1:20 (v:v:v) 0.1 M citric acid, 0.2 M Na2 HPO4, and deionized H2 O respectively). Similarly, a solution of 78 (150 μg) in CH3 OH (1.5 mL) was mixed with deionized H2 O (pH 7, 1.5 mL). The UV spectra of the solutions were measured immediately after mixing with the appropriate aqueous solution. The blank and the solvolysis reaction solutions were stoppered, protected from light, and allowed to stand at 25° C. The total reaction times reflect those required to observe no further change in absorbance. For the solvolysis of 78 at pH 3, the UV spectrum was taken every 30 s for 10 min and then every 3 min for the next 40 min. The decrease of the absorbance at 319 nm was monitored. […] For the solvolysis of 78 at pH 7, the UV spectrum was monitored every 5 min for 19 h. […] For the solvolysis of 79 at pH 3, the UV spectrum was monitored every 2 min for the first 110 min and then every 10 min for the next 4 h. The decrease in the absorbance at 345 nm was recorded.

[4] = 50% ch3oh-buffer, pH 3, pH 3, 50% CH3 OH-buffer, 25° C., read-out: solvolysis t1/2, pH 3 (h) (converted)
[5] = 50% ch3oh-buffer, pH 3, pH 3, 50% CH3 OH-buffer, 25° C., read-out: solvolysis t1/2, pH 3 (min)

CC(C)(C)OC(=O)N1CCCC2CC23C1=CC(=O)c1ccccc13 (single isomer, unassigned; (+)) [(+)-78]
cytotoxic potency of the two enantiomers compared [1]: more potent activity

COC(=O)c1cc2c([nH]1)C(=O)C=C1N(C(=O)OC(C)(C)C)C[C@H]3C[C@]123 [(+)-N--BOC-DSA]
AT-rich adenine N3 alkylation selectivity (size of site) [2]: 2 base-pair

O=C1C=C2NCC3CC23c2ccccc21 (stereo not shown) [CBI, reference compound]
solvolysis reactivity difference, CBI versus CBQ [3]: 10 -fold
solvolysis reactivity/stability in words or rank order [3]: CBI<CBQ<CNA

O=C1C=C2NCCC3CC23c2ccccc21 (stereo not shown) [CBQ, reference compound]
solvolysis reactivity difference, CBI versus CBQ [3]: 10 -fold
solvolysis reactivity/stability in words or rank order [3]: CBI<CBQ<CNA

COC(=O)c1cc2c([nH]1)C(=O)C=C1N(C(=O)OC(C)(C)C)CC3CC123 (stereo not shown) [N--BOC-DSA]
AT-rich adenine N3 alkylation selectivity (size of site) [2]: 2 base-pair
reaction time required for substantial or complete DNA alkylation ([2]; 25-37° C.): 2 to 7 days
sequence preference at the alkylation site [2]: 5'-AA>5'-TA

COC(=O)c1cc2cc(NC(=O)c3cc4c([nH]3)C(=O)C=C3N(C(=O)OC(C)(C)C)CC5CC345)ccc2[nH]1 (stereo not shown) [compound 17, N-(Methyl 1H-Indol-5-yl-2-carboxylate)-2-((tert-butyloxy)carbonyl)-1,2,8,8a-tetrahydrocyclopropa[c]pyrrolo[3,2-e]indol-4-one-7-carboxamide]
AT-rich adenine N3 alkylation selectivity (size of site) [2]: 3.5 base-pair
cytotoxic potency compared with simple derivatives N--BOC-DSA (4) and N--Ac-DSA ([1]; natural enantiomers): essentially indistinguishable

COC(=O)c1cc2cc(NC(=O)c3cc4cc(NC(=O)c5cc6c([nH]5)C(=O)C=C5N(C(=O)OC(C)(C)C)CC7CC567)ccc4[nH]3)ccc2[nH]1 (stereo not shown) [compound 18, N-{2-[N-(2-Methoxycarbonyl-1H-indol-5-yl)]carbamoyl-1H-indol-5-yl}-2-(tert-butyloxycarbonyl)-1,2,8,8a-tetrahydrocyclopropa[c]pyrrolo[3,2-e]indol-4-one-6-carboxamide]
AT-rich adenine N3 alkylation selectivity (size of site) [2]: 5 base-pair
comparison of DNA alkylation selectivity [2]: no differences in their DNA alkylation selectivity
less efficient at alkylating DNA than DSA-indole2 [2]: ca. 100 ×
slower DNA alkylation than DSA-indole2 [2]: ca. 1000 ×
unnatural enantiomer less effective at DNA alkylation than natural enantiomer [2]: approximately 10 ×
cytotoxic potency, effect of terminal N^2 substituent (18, 23, 24 compared) ([1]; natural and unnatural enantiomers): essentially indistinguishable
cytotoxic potency compared with simple derivatives N--BOC-DSA (4) and N--Ac-DSA ([1]; natural enantiomers): essentially indistinguishable

COC(=O)c1cc2c3c(ccc2[nH]1)N(C(=O)c1cc2c([nH]1)C(=O)C=C1N(C(=O)OC(C)(C)C)CC4CC124)CC3 (stereo not shown) [compound 19, 6-[(Methyl 1,2-Dihydro-3H-pyrrolo[3,2-e]indole-3-yl)carbonyl-7-carboxylate]-2-((tert-butyloxy)carbonyl)-1,2,8,8a-tetrahydrocyclopropa[c]-pyrrolo[3,2-e]indol-4-one]
AT-rich adenine N3 alkylation selectivity (size of site) [2]: 3.5 base-pair
more potent cytotoxicity than simple derivatives N--BOC-DSA (4) and N--Ac-DSA ([1]; natural enantiomers): less than 10 ×

COC(=O)c1cc2cc(NC(=O)c3cc4cc(NC(=O)c5cc6c7c(cc(O)c6[nH]5)N(C(C)=O)CC7CCl)ccc4[nH]3)ccc2[nH]1 (stereo not shown) [compound 22, N-{2-[N-(2-Methoxycarbonyl-1H-indol-5-yl)]carbamoyl-1H-indol-5-yl}-3-acetyl-1-(chloromethyl)-5-hydroxy-1,2-dihydro-3H-pyrrolo[3,2-e]indole-7-carboxamide]
cytotoxic activity of seco precursor compared with cyclopropane agent [1]: not distinguishable

COC(=O)c1cc2c3c(ccc2[nH]1)N(C(=O)c1cc2c4c(cc(O)c2[nH]1)N(C(=O)c1cc2c5c(ccc2[nH]1)N(C(N)=O)CC5)CC4CCl)CC3 (stereo not shown) [compound 28, 7-[(Methyl 1,2-Dihydro-(3H-pyrrolo[3,2-e]indole-3-yl)carbonyl-7-carboxy-late)-3-(3-carbamoyl-1,2-dihydro-3H-pyrrolo[3,2-e]indol-7-yl)carbonyl]-1-(chloromethyl)-5-hydroxy-1,2-dihydro-3H-pyrrolo[3,2-e]indole]
cytotoxic activity of seco precursor compared with cyclopropane agent [1]: not distinguishable

COC(=O)c1cc2c3c(ccc2[nH]1)N(C(=O)c1cc2c4c(cc(O)c2[nH]1)N(C(=O)c1cc2cc(OC)c(OC)c(OC)c2[nH]1)CC4CCl)CC3 (stereo not shown) [compound 29, 7-[(Methyl 1,2-Dihydro-3H-pyrrolo[3,2e]indole-3-yl)carbonyl-7-carboxylate]-3-[(5,6,7-trimethoxyindol-2-yl)carbonyl]-1-(chloromethyl)-5-hydroxy-1,2-dihydro-3H-pyrrolo[3,2-e]indole]
cytotoxic activity of seco precursor compared with cyclopropane agent [1]: not distinguishable

COC(=O)c1cc2c3c(ccc2[nH]1)N(C(=O)c1cc2c([nH]1)C(=O)C=C1N(C(=O)c4cc5cc(OC)c(OC)c(OC)c5[nH]4)CC4CC124)CC3 (stereo not shown) [compound 31]
cytotoxic potency compared with typical agents [1]: essentially equipotent with the typical agents

COC(=O)c1cc2c([nH]1)C(=O)C=C1N(C(C)=O)CC3CC123 (stereo not shown) [compound 40, Methyl 2-Acetyl-1,2,8,8a-tetrahydrocyclopropa[c]pyrrolo[3,2-e]indol-4-one-6-carboxylate]
sequence preference at the alkylation site [2]: 5'-AA>5'-TA
concentration at which DNA is alkylated [2]: 10^-3 M
more efficient DNA alkylation than (+)-N--BOC-DSA [2]: approximately 10 ×
unnatural enantiomer less effective at DNA alkylation than natural enantiomer [2]: approximately 10 ×

COC(=O)c1cc2c([nH]1)C(=O)C=C1N(C(=O)OC)CC3CC123 (stereo not shown) [compound 41, Methyl 2-(Methoxycarbonyl)-1,2,8,8a-tetrahydrocyclopropa[c]pyrrolo[3,2-e]indol-4-one-6-carboxylate]
sequence preference at the alkylation site [2]: 5'-AA>5'-TA
concentration at which DNA is alkylated [2]: 10^-3 M
more efficient DNA alkylation than (+)-N--BOC-DSA [2]: approximately 10 ×
unnatural enantiomer less effective at DNA alkylation than natural enantiomer [2]: approximately 10 ×

COC(=O)c1cc2c([nH]1)C(=O)C=C1N(C(=O)c3cc4c5c(ccc4[nH]3)N(C(=O)c3cc4c6c(ccc4[nH]3)N(C(N)=O)CC6)CC5)CC3CC123 (stereo not shown) [compound 61]
cytotoxic potency of the two enantiomers compared [1]: nearly equipotent

CC(C)(C)OC(=O)N1CCCC2CC23C1=CC(=O)c1ccccc13 (stereo not shown) [compound 78]
more reactive than N--BOC-DSA (solvolysis) [3]: 10^3 -10^4 ×
more reactive than the corresponding CBI derivative (solvolysis) [3]: 4750 ×
solvolysis reactivity/stability in words or rank order [3]: sufficiently reactive to undergo rapid solvolysis even at pH 7
half-life [3, 4]: 0.028 h
half-life [3, 5]: 0.0283 h
half-life ([3]; 50% ch3oh-h2o, pH 7, pH 7, 50% CH3 OH--H2 O, 25° C., read-out: solvolysis t1/2, pH 7 (converted)): 2.1 h
half-life ([3]; 50% methanol-water, pH 7, pH 7, no added acid catalysis, read-out: solvolysis t1/2, pH 7 (converted)): 2.1 h
solvolysis reactivity/stability in words or rank order ([3]; listed as N--BOC-CNA): between that of N--BOC-CBQ and the exceptionally reactive N--BOC-CI
solvolysis rate constant κ, pH 3 ([3]; 25° C.): 6.90×10^-3 s^-1
solvolysis rate constant κ, pH 7 ([3]; pH 7, 50% CH3 OH--H2 O, 25° C.): 9.16×10^-5 s^-1
solvolysis t1/2, pH 7 (h) ([3]; pH 7, no added acid catalysis): 2.1 h

O=C1C=C2NCCCC3CC23c2ccccc21 (stereo not shown) [compound 79, 1,2,3,4,11,11a-Hexahydrocyclopropa[c]naphtho[2,1-b]azepin-6-one]
more reactive than the corresponding CBI derivative (solvolysis) [3]: 1500 ×
reactivity difference, CNA versus CBQ [3]: over a hundred-fold difference in reactivity
solvolysis reactivity/stability in words or rank order [3]: sufficiently reactive to undergo rapid solvolysis even at pH 7
half-life [3, 4]: 0.62 h
half-life [3, 5]: 0.617 h
solvolysis reactivity/stability in words or rank order ([3]; listed as CNA): CBI<CBQ<CNA
solvolysis reactivity/stability in words or rank order ([3]; listed as CNA (79)): considerably more stable than N--BOC-CNA (78)
solvolysis rate constant κ, pH 3 ([3]; 25° C.): 3.10×10^-4 s^-1

COC(=O)N1CCCC2CC23C1=CC(=O)c1ccccc13 (stereo not shown) [compound 97, N-(Methoxycarbonyl)-1,2,3,4,11,11a-hexahydrocyclopropa[c]naphtho[2,1-b]azepin-6-one]
more reactive than N--BOC-DSA (solvolysis) [3]: 10^3 -10^4 ×
half-life ([3]; 50% methanol-water, pH 7, no added acid catalysis, read-out: solvolysis t1/2, pH 7 (converted)): 2.1 h

COc1cc2cc(C(=O)N3CCCC4CC45C3=CC(=O)c3ccccc35)[nH]c2c(OC)c1OC (stereo not shown) [compound 98, N-[(5,6,7-Trimethoxyindol-2-yl)carbonyl]-1,2,3,4,11,11a-hexahydrocyclopropa-[c]naphtho[2,1-b]azepin-6-one]
more potent cytotoxicity than N--BOC-CNA (78), natural enantiomer ([1]; natural enantiomer): 5-10 ×
difference in cytotoxic potency versus N--BOC-CNA, unnatural enantiomer ([1]; unnatural enantiomers): 1-2 ×

COC(=O)c1cc2c([nH]1)C(=O)C=C1N(C(=O)OC(C)(C)C)C[C@@H]3C[C@@]123 [ent-(-)-N--BOC-DSA]
AT-rich adenine N3 alkylation selectivity (size of site) [2]: 2 base-pair

COC(=O)c1cc2c([nH]1)C(=O)C=C1N(C(=O)c3cc4cc(OC)c(OC)c(OC)c4[nH]3)C[C@@H]3C[C@@]123 [ent-(-)-duocarmycin SA, reference compound]
AT-rich adenine N3 alkylation selectivity (size of site) [2]: 3.5 base-pair
